Measured values as given in article PMC7155171, “Probing the Open Global Health Chemical Diversity Library for Multistage-Active Starting Points for Next-Generation Antimalarials” (ACS Infectious Diseases, 2020).
Read-outs that look alike come from different tables or passages of the source.

Key:
[1] = test system: P. falciparum Dd2 (PfLuc) line expressing firefly luciferase, asexual blood stage; test: microbe, parasite or virus in culture; assay type: cell-based, Plasmodium falciparum
P. falciparum Dd2 = test: SYBR green I asexual blood stage proliferation assay (96 h); assay type: cell-based, Plasmodium falciparum; settings: for IC50 / Emax: Plasmodium falciparum
[2] = Plasmodium falciparum, DD2, read-out: CDD P. falciparum Luciferase ABS 11-pt Reconfirmation Dose Response (48hr): IC50 (μM), 11-pt dose response, 48hr
[3] = Plasmodium falciparum, DD2, 8-pt dose response, 96hr, read-out: CDD P. falciparum Luciferase ABS 8-pt Reconfirmation Dose Response (96hr): IC50
[4] = Plasmodium falciparum, DD2, 8-pt dose response, 96hr, read-out: CDD P. falciparum Luciferase ABS 8-pt Reconfirmation Dose Response (96hr): Maximum inhibition (%)
[5] = Plasmodium falciparum, DD2, 11-pt dose response, 48hr, read-out: CDD P. falciparum Luciferase ABS 11-pt Reconfirmation Dose Response (48hr): Maximum inhibition (%)
[6] = Plasmodium falciparum, DD2, 11-pt dose response, 96hr, read-out: CDD P. falciparum Luciferase ABS 11-pt Reconfirmation Dose Response (96hr): IC50
[7] = Plasmodium falciparum, DD2, 11-pt dose response, 96hr, read-out: CDD P. falciparum Luciferase ABS 11-pt Reconfirmation Dose Response (96hr): Maximum inhibition (%)
[8] = DD2, Sybr Green I, 11-pt dose response, 96hr, read-out: CDD P. falciparum Sybr Green I ABS 11-pt Reconfirmation Dose Response (96hr): IC50
[9] = DD2, Sybr Green I, 11-pt dose response, 96hr, read-out: CDD P. falciparum Sybr Green I ABS 11-pt Reconfirmation Dose Response (96hr): Maximum inhibition (%)
[10] = Plasmodium falciparum, DD2, read-out: P. falciparum Luciferase ABS 11-pt Reconfirmation Dose Response (48hr): IC50, 11-pt dose response, 48hr
[11] = Plasmodium falciparum, DD2, 8-pt dose response, 96hr, read-out: P. falciparum Luciferase ABS 8-pt Reconfirmation Dose Response (96hr): IC50
[12] = Plasmodium falciparum, DD2, 8-pt dose response, 96hr, read-out: P. falciparum Luciferase ABS 8-pt Reconfirmation Dose Response (96hr): Maximum inhibition (%)
[13] = Plasmodium falciparum, DD2, 11-pt dose response, 96hr, read-out: P. falciparum Luciferase ABS 11-pt Reconfirmation Dose Response (96hr): IC50
[14] = Plasmodium falciparum, DD2, 11-pt dose response, 96hr, read-out: P. falciparum Luciferase ABS 11-pt Reconfirmation Dose Response (96hr): Maximum inhibition (%)
[15] = DD2, 11-pt dose response, 96hr, read-out: P. falciparum Sybr Green I ABS 11-pt Reconfirmation Dose Response (96hr): IC50
[16] = DD2, 11-pt dose response, 96hr, read-out: P. falciparum Sybr Green I ABS 11-pt Reconfirmation Dose Response (96hr): Maximum inhibition (%)
[17] = Plasmodium falciparum, DD2, 11-pt dose response, 48hr, read-out: P. falciparum Luciferase ABS 11-pt Reconfirmation Dose Response (48hr): Maximum inhibition (%)

Compound	IC50 [1, 2]	IC50 [1, 3]	Emax [1, 4]	Emax [1, 5]	IC50 [1, 6]	Emax [1, 7]	IC50 (P. falciparum Dd2; [8])	Emax (P. falciparum Dd2; [9])	other results
COc1cc(CNCC(O)c2ccc(F)c(F)c2)cc2c1OCO2 (stereo not shown) [DDD00408586]	2.05 µM	0.55 µM	90.7%	96.5%	1.22 µM	99.5%	1890 nM	97.2%	–
CC[C@H]1CN2CC[C@H]1C[C@@H]2CNCc1ccc(OC(F)(F)F)cc1 [DDD01025218]	2.91 µM	1.07 µM	92.1%	93%	> 1.39 µM	100%	4160 nM	89.4%	–
COc1ccc2[nH]c(C[C@@H]3C[C@@H](C(C)C)[C@H](CN(C)C)C=C3C)nc2c1 [DDD01025345]	12 µM	0.59 µM	88.6%	66.8%	1.53 µM	91.5%	3630 nM	67.2%	–
CCC1CN(CC(=O)NCCN2CCCCC2)c2ccccc2S1 (stereo not shown) [DDD01025850]	5.56 µM	1.1 µM	87.2%	55.4%	2.56 µM	83.2%	7990 nM	74.7%	–
CN1CC[C@H](N(Cc2ccccc2)Cc2ccccc2)C[C@H](O)C1 [DDD01026217]	> 4.16 µM	0.91 µM	80.7%	69.3%	> 4.16 µM	93.7%	7310 nM	73.4%	–
Cc1ccc(C(CCNCCCN(C)C)C2CCOC(C)(C)C2)cc1 (stereo not shown) [DDD01026662]	7.59 µM	0.76 µM	96.2%	95.3%	5.89 µM	98.8%	1570 nM	97.5%	–
CN(C)CCCNCCC(Cc1ccccc1)C1CCOC(C)(C)C1 (stereo not shown) [DDD01026664, CN(C)CCCNCCC(Cc1ccccc1)C1CCOC(C)(C)C1]	–	–	–	–	–	–	–	–	IC50 ([1]; Plasmodium falciparum, DD2, read-out: CDD P. falciparum Luc 11pt dose response (96hr, n=2): IC50 (μM), 96hr, 11-point, n=2): 0.11 µM; IC50 ([1]; Plasmodium falciparum, DD2, read-out: CDD P. falciparum Luciferase 11pt dose response (48hr, n=2): IC50 (μM), 48hr, 11-point, n=2): 0.405 µM; Emax ([1]; Plasmodium falciparum, DD2, 48hr, 11-point, read-out: CDD P. falciparum Luciferase ABS 11-pt Reconfirmation Dose Response (48hr): Maximum inhibition (%)): 98.1%; Emax ([1]; Plasmodium falciparum, DD2, 96hr, 11-point, read-out: CDD P. falciparum Luciferase ABS 11-pt Reconfirmation Dose Response (96hr): Maximum inhibition (%)): 101%; CDD P. falciparum Sybr Green I ABS Dd2 Dose Response: Maximum measured (%) (P. falciparum Dd2; Dd2, 96 h): 98.8%; IC50 (P. falciparum Dd2; DD2, 96 h, read-out: CDD P. falciparum Sybr Green I ABS Dd2 Dose Response: IC50): 251 nM
Cc1ncc(CNCCO)c2cc(C(=O)c3ccc(Br)cc3)oc12 [DDD01027290]	–	–	–	–	–	–	–	–	IC50 [1, 10]: > 12.5 µM; IC50 [1, 11]: 1.35 µM; Emax [1, 12]: 90.8%; IC50 [1, 13]: 1.63 µM; Emax [1, 14]: 98.3%; IC50 (P. falciparum Dd2; [15]): 3320 nM; Emax (P. falciparum Dd2; [16]): 63.7%
O=S(=O)(NCC(c1ccsc1)N1CCCCCC1)c1cccs1 (stereo not shown) [DDD01027501]	–	–	–	–	–	–	–	–	IC50 [1, 10]: > 12.5 µM; IC50 [1, 11]: 1.94 µM; Emax [1, 12]: 83.7%; Emax [1, 17]: 44%; IC50 [1, 13]: 8.75 µM; IC50 (P. falciparum Dd2; [15]): 7790 nM; Emax (P. falciparum Dd2; [16]): 69.9%
Cc1cc(C)c(N(CC(O)CNCc2ccccc2)S(C)(=O)=O)c(C)c1 (stereo not shown) [DDD01027603]	2.17 µM	0.51 µM	90.1%	75%	0.829 µM	90.9%	4910 nM	81.7%	–
Cc1cc(CN2CCC(CNS(=O)(=O)c3ccc(Br)s3)CC2)c(C)o1 [DDD01027665]	3.89 µM	0.63 µM	89.4%	82%	1.08 µM	95%	> 12500 nM	32.7%	–
COc1ccc(CCC(=O)NCCN2CCC(c3cccs3)CC2)cc1 [DDD01028015]	11.4 µM	0.95 µM	85.7%	69.6%	2.24 µM	86.6%	4170 nM	71.9%	–
O=C(NCCc1ccccc1)NCCN1CCC(c2cccs2)CC1 [DDD01028018]	–	–	–	–	–	–	–	–	IC50 [1, 10]: 5.18 µM; IC50 [1, 11]: 1.18 µM; Emax [1, 12]: 87.7%; Emax [1, 17]: 64%; IC50 [1, 13]: 1.42 µM; Emax [1, 14]: 87.1%; IC50 (P. falciparum Dd2; [15]): > 4160 nM; Emax (P. falciparum Dd2; [16]): 69.6%
COc1ccc(NC(=O)Nc2cnc(N3CCN(C)CC3)nc2)cc1Cl [DDD01028129]	–	–	–	–	–	–	–	–	IC50 [1, 10]: > 12.5 µM; IC50 [1, 11]: 1.39 µM; Emax [1, 12]: 94.1%; Emax [1, 17]: 14.8%; IC50 [1, 13]: 4.41 µM; Emax [1, 14]: 57.8%; IC50 (P. falciparum Dd2; [15]): > 12500 nM; Emax (P. falciparum Dd2; [16]): 38.2%
c1ccc(C[C@H]2CN(C3CCOCC3)CC[C@H]2OCC2CC2)cc1 [DDD01028772]	> 12.5 µM	0.69 µM	87%	70.2%	1.04 µM	91.3%	7170 nM	69.9%	–
CN1CCC2(CCCN(c3nccc(C(F)(F)F)n3)C2)CC1 [DDD01028783]	> 12.5 µM	0.75 µM	87.2%	60.6%	3.57 µM	84.9%	8820 nM	74%	–
CC(C)N1CCC2(CCCN(c3nccc(C(F)(F)F)n3)C2)CC1 [DDD01028790]	3.12 µM	0.61 µM	89.3%	69%	1.33 µM	91.1%	9750 nM	76.4%	–
Fc1cccc(CN2C[C@@H]3CN(Cc4ccccn4)C[C@@H]3C2)c1 [DDD01029091]	1.16 µM	0.62 µM	95.3%	94%	0.354 µM	100%	2340 nM	–	–
CCC[C@@H]1C[C@@H](C(=O)N[C@@H]([C@H]2O[C@H](SC)[C@H](O)[C@@H](O)[C@H]2O)[C@H](C)Cl)N(C)C1 [clindamycin, reference compound]	–	–	–	–	–	–	–	–	IC50 (P. falciparum Dd2; 96 h, Dd2, read-out: 96 h SYBR green ABS IC50): > 10000 nM
Doxycycline [reference compound]	–	–	–	–	–	–	–	–	IC50 ([1]; 96 h incubation, Dd2 luciferase, read-out: 96 hour Pfluc IC50): 0.55 ± 0.2 µM; IC50 ([1]; read-out: 48 hour Pfluc IC50, 48 h incubation, Dd2 luciferase): 7.18 ± 1.59 µM
